Data published in the supplement of paper PMC10307832.

Compound: CC(C)N(CCCNC(=O)Nc1ccc(C(C)(C)C)cc1)C[C@H]1O[C@@H](n2ccc3c(N)ncnc32)[C@H](O)[C@@H]1O + COc1cccc2cc(-c3nc([C@H]4CC[C@H](C(=O)O)CC4)n4ncnc(N)c34)[nH]c12 [OSI-027] (partner 0.5 µM)
Assay: relative viability (nuclei count vs DMSO), 5 days (fraction); higher = more cells survive
Details: first compound 0.08 µM
Outline: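 A single step with final 0.05% Triton X-100, 1% formaldehyde and 1 ug/ml Hoechst fixed the cells and stained nuclei 5 days after treatment. Lung cancer cell lines in 1536-well plates had been treated by pin tool the day after seeding with one drug alone or a fixed anchor-drug dose plus five library-drug doses (not always all listed) in √10 steps, and nuclei were counted on 4× images. Relative viability is the ratio of nuclei in treated wells to nuclei in vehicle wells, taken as the median of duplicate plates.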

| Cell Line | relative viability |
| --- | --- |
| NCI-H1915 | 0.58 |
| HCC-827 | 0.699 |
| LXF-289 | 0.791 |
| NCI-H2347 | 0.459 |
| NCI-H661 | 0.719 |
| CAL-12T | 0.603 |
| NCI-H1651 | 0.671 |
| EPLC-272H | 0.275 |
| NCI-H23 | 0.594 |
| NCI-H1792 | 0.693 |
| NCI-H1355 | 0.375 |
| NCI-H322M | 0.514 |
| NCI-H1437 | 0.804 |
| NCI-H1755 | 0.801 |
| NCI-H2085 | 0.847 |
| HCC-15 | 0.641 |
| RERF-LC-KJ | 0.551 |
| EKVX | 0.718 |
| LC-2-ad | 0.845 |
| NCI-H1563 | 0.742 |
| NCI-H1944 | 0.413 |
| NCI-H1975 | 0.729 |
| SW 1573 | 0.501 |
| ABC-1 | 0.497 |
| NCI-H358 | 0.75 |
| NCI-H727 | 0.635 |
| SK-LU-1 | 0.372 |

Same assay, conditions: first compound 0.253 µM

| Cell Line | relative viability |
| --- | --- |
| NCI-H2023 | 0.501 |
| A-427 | 0.492 |
| NCI-H460 | 0.551 |
| NCI-H838 | 0.408 |
| NCI-H1734 | 0.612 |
| NCI-H2405 | 0.678 |
| 201T | 0.864 |
| NCI-H1915 | 0.732 |
| HCC-827 | 0.838 |
| LXF-289 | 0.797 |
| NCI-H2347 | 0.427 |
| NCI-H661 | 0.775 |
| CAL-12T | 0.498 |
| NCI-H1651 | 0.556 |
| EPLC-272H | 0.423 |
| NCI-H23 | 0.596 |
| NCI-H1792 | 0.702 |

| Cell Line | relative viability |
| --- | --- |
| NCI-H1355 | 0.473 |
| NCI-H322M | 0.618 |
| NCI-H1437 | 0.831 |
| NCI-H1755 | 0.753 |
| NCI-H2085 | 0.621 |
| HCC-15 | 0.815 |
| RERF-LC-KJ | 0.624 |
| EKVX | 0.713 |
| LC-2-ad | 0.823 |
| NCI-H1563 | 0.782 |
| NCI-H1944 | 0.41 |
| NCI-H1975 | 0.672 |
| SW 1573 | 0.679 |
| ABC-1 | 0.588 |
| NCI-H358 | 0.61 |
| NCI-H727 | 0.597 |
| SK-LU-1 | 0.424 |

Same assay, conditions: first compound 0.8 µM

| Cell Line | relative viability |
| --- | --- |
| NCI-H2023 | 0.414 |
| A-427 | 0.535 |
| NCI-H460 | 0.693 |
| NCI-H838 | 0.367 |
| NCI-H1734 | 0.627 |
| NCI-H596 | 0.507 |
| NCI-H2405 | 0.684 |
| 201T | 0.624 |
| NCI-H1915 | 0.651 |
| LXF-289 | 0.852 |
| NCI-H2347 | 0.413 |
| NCI-H661 | 0.68 |
| CAL-12T | 0.635 |
| NCI-H1651 | 0.653 |
| EPLC-272H | 0.274 |
| NCI-H23 | 0.574 |
| NCI-H1792 | 0.716 |

| Cell Line | relative viability |
| --- | --- |
| NCI-H1355 | 0.374 |
| NCI-H322M | 0.575 |
| NCI-H1437 | 0.81 |
| NCI-H1755 | 0.672 |
| NCI-H2085 | 0.705 |
| HCC-15 | 0.6 |
| RERF-LC-KJ | 0.679 |
| EKVX | 0.71 |
| LC-2-ad | 0.892 |
| NCI-H1563 | 0.73 |
| NCI-H1944 | 0.401 |
| NCI-H1975 | 0.403 |
| SW 1573 | 0.635 |
| NCI-H358 | 0.724 |
| NCI-H727 | 0.521 |
| SK-LU-1 | 0.352 |

Same assay, conditions: first compound 2.53 µM

| Cell Line | relative viability |
| --- | --- |
| NCI-H2023 | 0.392 |
| A-427 | 0.502 |
| NCI-H460 | 0.564 |
| NCI-H838 | 0.388 |
| NCI-H1734 | 0.564 |
| NCI-H596 | 0.829 |
| NCI-H2405 | 0.668 |
| 201T | 0.77 |
| NCI-H1915 | 0.645 |
| HCC-827 | 0.722 |
| LXF-289 | 0.828 |
| NCI-H2347 | 0.574 |
| NCI-H661 | 0.714 |
| CAL-12T | 0.579 |
| NCI-H1651 | 0.811 |
| EPLC-272H | 0.283 |
| NCI-H23 | 0.681 |
| NCI-H1792 | 0.586 |

| Cell Line | relative viability |
| --- | --- |
| NCI-H1355 | 0.472 |
| NCI-H322M | 0.693 |
| NCI-H1437 | 0.891 |
| NCI-H1755 | 0.717 |
| NCI-H2085 | 0.757 |
| HCC-15 | 0.812 |
| RERF-LC-KJ | 0.529 |
| EKVX | 0.704 |
| LC-2-ad | 0.816 |
| NCI-H1563 | 0.713 |
| NCI-H1944 | 0.452 |
| NCI-H1975 | 0.577 |
| SW 1573 | 0.683 |
| ABC-1 | 0.565 |
| NCI-H358 | 0.752 |
| NCI-H727 | 0.495 |
| SK-LU-1 | 0.405 |

Same assay, conditions: first compound 8 µM

| Cell Line | relative viability |
| --- | --- |
| NCI-H2023 | 0.353 |
| A-427 | 0.478 |
| NCI-H460 | 0.601 |
| NCI-H838 | 0.476 |
| NCI-H1734 | 0.6 |
| NCI-H596 | 0.748 |
| NCI-H2405 | 0.592 |
| 201T | 0.903 |
| NCI-H1915 | 0.624 |
| HCC-827 | 0.665 |
| LXF-289 | 0.742 |
| NCI-H2347 | 0.509 |
| NCI-H661 | 0.683 |
| CAL-12T | 0.53 |
| NCI-H1651 | 0.77 |
| EPLC-272H | 0.259 |
| NCI-H23 | 0.645 |
| NCI-H1792 | 0.72 |
| NCI-H1355 | 0.428 |
